# Measured values taken from the METLIN SMRT retention time set (Domingo-Almenara et al. 2019).
# Assay: gradient 5% acetonitrile 3 min, to 50% in 2 min, to 85% in 15 min, held 3 min, 100 µL/min
# Details: column: Zorbax Extend-C18 2.1 x 50 mm; eluents: water / acetonitrile, 0.1% formic acid
# Procedure, shortened: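 Values are retention times taken from adduct peaks that software picked and an analyst inspected. The pure standards were run as mixtures of ~100 molecules on HPLC linked to a quadrupole time-of-flight mass spectrometer, in positive and negative ionization mode. A Zorbax Extend-C18 column (2.1 × 50 mm, 1.8 μm) was used at 100 μL/min with water and acetonitrile, each including 0.1% formic acid.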
row,SMILES,RP-LC retention time
1,Cn1nnc2cc(CNC(=O)c3cccnc3)ccc21,566 s
2,O=C1CCCCC(C(=O)N2CCOCC2)N1 (stereo unspecified),575 s
3,CC(C)CN1Cc2ccccc2-n2ccnc2C12CCN(C(=O)c1ccc(F)cc1)CC2,739 s
4,CCNC(=O)c1ccc(-c2nc3cc(NS(=O)(=O)c4ccc(C(C)C)cc4)ccc3n2C)cc1,744 s
5,CCc1ccc2[nH]c3c(c(=O)c2c1)CN(CC(=O)NCc1cccc(OC)c1)CC3,629 s
6,CCC(Oc1ccc(=O)n(-c2ccc(F)cc2)n1)C(=O)Nc1ccc(C(C)=O)cc1 (stereo unspecified),764 s
7,CC(=O)Nc1ccc(C2(C(=O)NCc3ccccc3F)CCC2)cc1,732 s
8,O=C1COc2ccc(Cl)cc2N1Cc1nc(-c2ccc(F)cc2)no1,1070 s
9,N#CCc1ccc(NC(=O)C2CCCN(S(=O)(=O)Cc3ccc(F)cc3)C2)cc1 (stereo unspecified),884 s
10,COc1ccc(C2CC(=O)c3c(C)nn(-c4nc5ccccc5[nH]4)c3C2)c(OC)c1 (stereo unspecified),1020 s
11,Cc1nn(-c2cc(N3CCCC3)ncn2)c(C)c1CCC(=O)NCc1ccc2c(c1)OCO2,921 s
12,Cc1ccc(CNC(=O)C2CCCCC(=O)N2)o1 (stereo unspecified),636 s
13,Cc1ccc(NC(=O)Nc2nccn(-c3cccc(Cl)c3)c2=O)cc1C,1090 s
14,COc1ccc(OC)c(NC(=O)C2CCCN(c3cnc4nccnc4c3)C2)c1 (stereo unspecified),730 s
15,CC1CCc2[nH]nc(C(N)=O)c2C1 (stereo unspecified),614 s
16,CC(C)n1cnc(S(=O)(=O)N2CCCC(C(=O)Nc3cccc(C(F)(F)F)c3)C2)c1 (stereo unspecified),890 s
17,CN1C(=O)c2cc(S(=O)(=O)NC3CCCCCC3)ccc2Oc2cccnc21,1000 s
18,O=C(CCc1nnn2c1CN(C(=O)Nc1ccc3c(c1)OCCO3)CC2)N1CCCC1,625 s

row,SMILES,RP-LC retention time
1,CCCNC(=O)Cn1ccn2nc(-c3ccccc3)c(CO)c2c1=O,684 s
2,Cc1cc(N2CCCC2)nc(N2CCN(C(=O)c3ccc(-c4ccccc4)cc3)CC2)n1,813 s
3,CCOC(=O)Cc1cc(=O)oc2cc(O)cc(O)c12,660 s
4,Cc1cc(NC(=O)Cn2c(C)cc(-c3nnc(C4CCC4)o3)c2C)ccc1F,934 s
5,COc1cc(NC(=O)N2CCC(n3cnc4cccnc43)CC2)cc(OC)c1,638 s
6,CCn1ccc2sc(C)c(C(=O)NC3CCCC3)c2c1=O,733 s
7,Cc1ccc(-c2noc(-c3ccccc3S(=O)(=O)NC3CCCC3)n2)cc1,1300 s
8,Cn1c(C(=O)N2CCN(c3ccccn3)CC2)cc2c(-c3cccs3)nn(-c3ccccc3)c21,749 s
9,O=C(C1CCN(c2cnn(Cc3ccccc3)c(=O)c2)CC1)N1CCSCC1,648 s
10,Cc1nc(CC(=O)Nc2ccc(Cl)c(F)c2)sc1C(=O)NC1CC1,750 s
11,CSc1nnc(-c2nn(C)c3c2CN(C(=O)c2ccc(C)cc2)CC3)n1C,716 s
12,CCn1ccc(C(=O)N2CCN(c3nnc4ccc(Cl)cn34)CC2)n1,562 s
13,CCOc1ccccc1CNC(=O)C1CCCN(c2nn3c(=O)c4c(nc3s2)CCCC4)C1 (stereo unspecified),831 s
14,Cc1ccc(-c2csc(-c3cccn3CC(=O)N(C)Cc3ccco3)n2)cc1,1170 s
15,Cc1nn(-c2ccc(F)cc2)c(C)c1S(=O)(=O)N1CCC(C(=O)NC2CC2)CC1,764 s
16,COc1cc([C@@H]2c3cc4c(cc3[C@H](O)[C@@H](CO)[C@@H]2C(=O)NCc2ccc(OC(C)C)cc2)OCO4)cc(OC)c1OC,770 s
17,Cn1ncc2c3ccccc3n(CC(=O)N3CCN(Cc4ccccc4)CC3)c2c1=O,639 s
18,Cc1cc(N2CCN(C(=O)COc3ccc(Cl)cc3)CC2)nc2nncn12,629 s
